Test results from patent US5811405A (Hoechst Aktiengesellschaft, priority 1996, dated 1998).

Experiments:
E selectin = target: T1, E selectin (Homo sapiens, UniProt P16581); assay: HL60 cell adhesion assay on recombinant, soluble E selectin-IgG1 fusion protein; type: cell-based; conditions: HL60 cells
T1 construct: formed from the extracytoplasmic domain of either E selectin or P selectin; made in house; host or cells: COS-7 cells (ATCC), transient transfection with DEAE dextran; secreted into culture supernatant, captured on anti-human IgG
T1 sequence (P16581 22-556): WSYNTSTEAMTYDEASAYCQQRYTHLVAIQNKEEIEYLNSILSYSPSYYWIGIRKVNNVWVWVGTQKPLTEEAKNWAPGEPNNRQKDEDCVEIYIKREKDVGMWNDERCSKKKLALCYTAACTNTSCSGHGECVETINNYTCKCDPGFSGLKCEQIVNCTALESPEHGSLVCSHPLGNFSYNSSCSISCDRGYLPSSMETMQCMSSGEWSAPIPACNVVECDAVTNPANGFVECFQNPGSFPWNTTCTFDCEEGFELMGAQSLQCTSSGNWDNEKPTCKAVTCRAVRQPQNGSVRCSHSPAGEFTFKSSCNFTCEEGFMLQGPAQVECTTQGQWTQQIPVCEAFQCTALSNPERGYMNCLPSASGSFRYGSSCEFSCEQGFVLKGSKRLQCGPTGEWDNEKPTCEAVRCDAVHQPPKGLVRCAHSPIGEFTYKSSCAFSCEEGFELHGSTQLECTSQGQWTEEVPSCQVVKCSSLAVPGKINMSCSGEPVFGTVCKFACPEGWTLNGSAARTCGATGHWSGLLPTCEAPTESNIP
Description: (§1) Primary assays for investigating the effect of the compounds according to the present invention on the adherence of cells to recombinant, soluble selectin fusion proteins.
(§2) In order to test the efficacy of the compounds according to the invention of the interaction between the E and P selectins (old nomenclature, ELAM-1 and GMP-140, respectively) and their ligands, an assay is used which is in each case specific for only one of these interactions. The ligands are presented in their natural form as surface structures on promyelocytic HL60 cells. […] Recombinantly prepared soluble fusion proteins, formed from the extracytoplasmic domain of either E selectin or P selectin and the constant region of a human immunoglobulin of the IgG1 subclass, were used as binding partners.
Preparation of L selektin-IgG1
The gene construct "ELAM-Rg", published by Walz et al., 1990, was used to prepare soluble […] fusion protein.
For the purposes of expression, the plasmid DNA was transfected into COS-7 cells (ATCC) using DEAE dextran (molecular biological methods: see Ausubel, F. M., Brent, R., Kingston, R. E., Moore, D. D., Seidman, J. G., Struhl, K. and Smith, J. A. 1990. Current Protocols in Molecular Biology, John Wiley, New York). […]

P selectin = target: T2, P selectin (Homo sapiens, UniProt P16109); assay: HL60 cell adhesion assay on recombinant, soluble P selectin-IgG1 fusion protein; type: cell-based; conditions: HL60 cells
T2 construct: formed from the extracytoplasmic domain of either E selectin or P selectin; made in house; culture supernatant, captured on anti-human IgG
T2 sequence (P16109 42-771): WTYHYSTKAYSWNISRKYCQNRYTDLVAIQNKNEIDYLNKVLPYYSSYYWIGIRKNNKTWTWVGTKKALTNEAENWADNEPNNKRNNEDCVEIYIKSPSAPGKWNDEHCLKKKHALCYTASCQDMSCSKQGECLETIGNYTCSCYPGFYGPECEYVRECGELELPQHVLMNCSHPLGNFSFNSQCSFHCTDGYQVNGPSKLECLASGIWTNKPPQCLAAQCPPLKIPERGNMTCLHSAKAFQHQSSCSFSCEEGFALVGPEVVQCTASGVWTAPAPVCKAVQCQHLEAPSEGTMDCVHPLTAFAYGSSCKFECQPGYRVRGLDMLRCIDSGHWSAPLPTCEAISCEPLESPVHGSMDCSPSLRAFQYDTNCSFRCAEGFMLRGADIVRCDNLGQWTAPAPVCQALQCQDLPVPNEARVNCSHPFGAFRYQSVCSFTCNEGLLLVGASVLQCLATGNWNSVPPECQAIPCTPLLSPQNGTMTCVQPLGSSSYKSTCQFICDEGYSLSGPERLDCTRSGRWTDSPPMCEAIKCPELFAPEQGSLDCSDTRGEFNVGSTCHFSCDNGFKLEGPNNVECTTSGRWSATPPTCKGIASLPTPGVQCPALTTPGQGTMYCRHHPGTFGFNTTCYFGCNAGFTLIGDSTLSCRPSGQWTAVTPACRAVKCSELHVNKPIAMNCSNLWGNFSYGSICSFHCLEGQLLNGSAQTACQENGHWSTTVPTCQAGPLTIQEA
Description: as §1, §2
Preparation of P selectin-IgG1
The gene construct "CD62Rg", published by Aruffo et al., 1991, is used to prepare the soluble P selectin-IgG1 fusion protein. The subsequent procedure corresponds to the preparation of L selectin-IgG1 which was described in A1. Aruffo, A., Kolanus, W., Walz, G., Fredman, P. and Seed, B. 1991. CD62/-P-Selectin recognition of myeloid and tumor cell sulfatides. Cell 67, 35-44. […]
7. The quantity of BCECF-AM-labeled cells adhering in the wells is measured in a cytofluorimeter (Millipore) at a sensitivity setting of 4, an excitation wavelength of 485/22 nm and an emission wavelength of 530/25 nm.

[1] = system: adhesion of leukocytes to the endothelium; assay: Leukocyte adhesion in vivo (intravital microscopy on the rat mesentery, LPS-induced); conditions: 10 mg/kg i.v., SPRD(m) rat, LPS 15 mg/kg 15 min after test substance; vs untreated controls
Description: Leukocyte adhesion--Examination of the efficacy of the compounds according to the invention in vivo (intravital microscopy on the rat):
The induced adhesion of leukocytes is quantified in the rat mesentery using an intravital microscopic investigation technique (Atherton A. and Born G. V. R., Quantitative investigations of the adhesiveness of circulating polymorphonuclear leukocytes to blood vessel walls. J. Physiol. 222, 447-474, 1972); herein incorporated by reference. A prolonged anesthesia is instituted, under inhalation anesthesia with ether, by injecting urethane ([…] of body weight) intramuscularly. Blood vessels (femoral vein for injection of substances and carotid artery for measuring blood pressure) are exposed by dissection and catheters are then tied into them. After that, the corresponding transparent tissue (mesentery) is exposed spread out on a microscope stage and overlaid with paraffin oil at 37° C. […] The resulting increase in the adhesion of leukocytes to the endothelium is quantified directly by means of vital microscopy or using fluorescence dyes. […] The number of rolling leukocytes (i.e. all leukocytes which are visibly rolling and which are slower than the flowing erythrocytes) and the number of leukocytes which are adhering to the endothelium (dwell time longer than 5 seconds) are recorded every 10 minutes for a period of 60 minutes. […]

neutrophil adhesion = assay: Reperfusion model on the open rabbit heart (Langendorff), leukocyte accumulation and arrhythmias; conditions: perfused rabbit heart, 30 min ischemia, 30 min reperfusion; vs untreated hearts
Procedure: Reperfusion model for investigating the influence of neutrophil adhesion in the course of ischemialreperfusion carried out on the open rabbit heart.
The hearts are perfused with nutrient solution, and also with/without leukocytes and/or active compound, at constant pressure using the Langendorff technique. After that, an ischemia is elicited by ligating the left coronary artery (30 min). Following reperfusion (30 min), the accumulation of leukocytes is evaluated histologically. During the course of the experiment, potentials and arrhythmias are measured at 256 electrodes (total duration of the experiment, approx. 90 min). […] The compounds according to the present invention, and also their physiologically tolerated salts, are very well suited, owing to their valuable pharmacological properties, for use as medicines in mammals, in particular humans.

selectin receptors = conditions: all known in-vitro test systems; Jacob et al., 1995; read-out: IC50 (inhibition of cell adhesion to selectin receptors); cited from earlier work
[2] = system: myocardial reperfusion injuries; conditions: M. Buerke et al., 1994; cited from earlier work

For `C[C@@H]1O[C@@H](O[C@H](COCCCCCC(C(=O)O)C(=O)O)[C@@H](COCCCCCC(C(=O)O)C(=O)O)O[C@@H]2O[C@@H](C)[C@@H](O)[C@@H](O)[C@@H]2O)[C@@H](O)[C@H](O)[C@@H]1O` [Compound 6a, 1,4-bis(5-malonyl-1-pentyloxy)-2,3-bis(α-L-fucopyranosyl)-D-threitol], the IC50 (E selectin) was 500 to 1500 µM, the IC50 (P selectin) was 3500 to 4100 µM and the “inhibition (of leukocyte adhesion)” value [1] was 39%.

With chondroitin sulfate the arrhythmias (neutrophil adhesion) was “fewer arrhythmias” and the leukocyte accumulation (neutrophil adhesion) was “less leukocyte accumulation”.

For sialyl Lewis X [SLeX], the IC50 (selectin receptors) is listed as roughly 1000 µM and the “use in animal experiments, myocardial reperfusion injuries” value [2] is listed as “used successfully”.
